Experiments:
[1] = Volume of distribution in mouse at 3 mg/kg, iv; type: ADME, organism-based; design: dose 3 mg/kg, route intravenous; details: in vivo
[2] = Cmax in mouse at 30 mg/kg, po; type: ADME, organism-based; design: dose 30 mg/kg, route oral; details: in vivo
Mus musculus [3] = assay: (§1) AUC in mouse at 30 mg/kg, po; type: ADME, organism-based, Plasma; design: dose 30 mg/kg, route oral; details: in vivo
[4] = Half life in mouse at 30 mg/kg, po; type: ADME, organism-based; design: dose 30 mg/kg, route oral; details: in vivo
Mus musculus [5] = assay: (§2) Oral bioavailability in mouse at 30 mg/kg; type: ADME, organism-based; details: in vivo
[6] = Clearance in mouse at 3 mg/kg, iv; type: ADME, organism-based; design: dose 3 mg/kg, route intravenous; details: in vivo
[7] = as §1; type: ADME, organism-based, Plasma; design: dose 30 mg/kg, route oral; details: plasma
[8] = as §2; type: ADME, organism-based; details: in vivo

Vd [1] [L/kg]	Cmax [2] [ng/mL]	AUC (Mus musculus [3]) [ng·h/mL]	half-life [4] [h]	F (Mus musculus [5]) [%]	clearance [6] [mL/min/kg]	AUC [7] [ng·h/mL]	bioavailability [8] [%]	SMILES
2.4	370	400	4.4	9				Oc1ccc2cc(CNCCc3ccc(Br)cc3)c(-c3ccsc3)nc2c1
1.4	500		7.7		29	860	10	COc1cc2nc(-c3ccsc3)c(CNCCc3ccc(Br)cc3)cc2cc1O

From ChEMBL document CHEMBL1255552, “Synthesis and SAR of 2-aryl-3-aminomethylquinolines as agonists of the bile acid receptor TGR5” (Bioorg Med Chem Lett, 2010)
